29 molecules from ChEMBL document CHEMBL1201862, “PubChem BioAssay data set” (2004) can be followed below.

For data set [1], the target named is T1, Protein RecA (Mycobacterium tuberculosis, UniProt P9WHJ3).
T1 sequence (P9WHJ3 whole entry): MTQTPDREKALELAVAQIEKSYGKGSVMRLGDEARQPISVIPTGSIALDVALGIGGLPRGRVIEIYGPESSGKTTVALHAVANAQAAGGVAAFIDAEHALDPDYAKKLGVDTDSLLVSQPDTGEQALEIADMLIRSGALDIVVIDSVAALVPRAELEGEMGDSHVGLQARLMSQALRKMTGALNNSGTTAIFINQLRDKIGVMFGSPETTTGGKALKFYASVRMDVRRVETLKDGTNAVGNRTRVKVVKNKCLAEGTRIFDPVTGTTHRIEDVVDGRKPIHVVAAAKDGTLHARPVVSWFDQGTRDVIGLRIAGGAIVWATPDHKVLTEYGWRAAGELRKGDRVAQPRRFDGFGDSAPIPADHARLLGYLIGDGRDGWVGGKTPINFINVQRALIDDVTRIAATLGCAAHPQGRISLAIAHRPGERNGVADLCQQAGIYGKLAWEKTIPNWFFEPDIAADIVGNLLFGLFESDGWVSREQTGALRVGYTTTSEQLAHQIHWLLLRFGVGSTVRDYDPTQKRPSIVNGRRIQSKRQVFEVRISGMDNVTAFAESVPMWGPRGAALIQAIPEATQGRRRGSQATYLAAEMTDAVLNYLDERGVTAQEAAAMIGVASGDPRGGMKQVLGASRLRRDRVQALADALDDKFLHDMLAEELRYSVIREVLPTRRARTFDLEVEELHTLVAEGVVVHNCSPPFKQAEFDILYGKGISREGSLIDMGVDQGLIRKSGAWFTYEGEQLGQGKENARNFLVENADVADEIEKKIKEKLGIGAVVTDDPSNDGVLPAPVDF
Briefly: Fluorescence Cell-Free Homogeneous Dose Retest to Identify Inhibitors of RecA-Intein Splicing Activity. [Related pubchem assays (depositor defined):AID2097, AID2223, AID489010, AID492950]. Format: functional.

Data set [2] addresses T2, Replicative DNA helicase DnaB (Mycobacterium tuberculosis, UniProt P9WMR3).
T2 sequence (P9WMR3 whole entry): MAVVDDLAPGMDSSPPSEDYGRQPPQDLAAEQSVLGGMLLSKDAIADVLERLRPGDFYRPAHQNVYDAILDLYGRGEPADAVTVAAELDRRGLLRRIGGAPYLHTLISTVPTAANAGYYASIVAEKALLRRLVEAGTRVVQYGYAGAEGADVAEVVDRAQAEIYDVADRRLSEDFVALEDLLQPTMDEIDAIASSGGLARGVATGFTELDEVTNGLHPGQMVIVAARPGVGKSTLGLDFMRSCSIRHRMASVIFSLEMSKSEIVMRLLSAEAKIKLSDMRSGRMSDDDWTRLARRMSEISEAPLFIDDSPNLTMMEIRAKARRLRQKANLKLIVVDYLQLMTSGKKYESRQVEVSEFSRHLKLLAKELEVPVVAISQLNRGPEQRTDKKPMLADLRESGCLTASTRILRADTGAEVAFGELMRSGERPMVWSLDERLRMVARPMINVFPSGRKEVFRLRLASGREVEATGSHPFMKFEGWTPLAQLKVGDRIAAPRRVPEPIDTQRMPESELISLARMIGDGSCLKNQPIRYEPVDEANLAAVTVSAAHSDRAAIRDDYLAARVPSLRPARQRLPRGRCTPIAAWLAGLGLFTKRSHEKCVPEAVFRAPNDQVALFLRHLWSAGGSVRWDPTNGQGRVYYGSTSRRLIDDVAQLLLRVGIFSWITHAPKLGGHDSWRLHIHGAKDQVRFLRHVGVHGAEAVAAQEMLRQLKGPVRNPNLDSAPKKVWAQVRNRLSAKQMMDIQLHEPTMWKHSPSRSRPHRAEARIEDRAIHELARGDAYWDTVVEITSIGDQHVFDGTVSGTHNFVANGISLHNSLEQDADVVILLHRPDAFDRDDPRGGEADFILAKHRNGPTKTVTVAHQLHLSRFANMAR
Briefly: DnaB intein splicing inhibitors, dose response, biochemical, cell-free fluorescence (AID 449749). Format: functional.

Data set [3] is described as follows: intracellular Trypanosoma cruzi inhibitors in host cells – cell-based, plate reader, cherry-pick samples, set 3, dose response (AID 651818).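 Note: compounds incubated with infected cells for about four days.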 The class given is functional.
In data set [4] the target is Cytochrome P450 2D6 (Homo sapiens, UniProt P10635).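 Note: CYP2D6 member of a cytochrome P450 panel assay.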
Chain of Cytochrome P450 2D6 (P10635 whole entry): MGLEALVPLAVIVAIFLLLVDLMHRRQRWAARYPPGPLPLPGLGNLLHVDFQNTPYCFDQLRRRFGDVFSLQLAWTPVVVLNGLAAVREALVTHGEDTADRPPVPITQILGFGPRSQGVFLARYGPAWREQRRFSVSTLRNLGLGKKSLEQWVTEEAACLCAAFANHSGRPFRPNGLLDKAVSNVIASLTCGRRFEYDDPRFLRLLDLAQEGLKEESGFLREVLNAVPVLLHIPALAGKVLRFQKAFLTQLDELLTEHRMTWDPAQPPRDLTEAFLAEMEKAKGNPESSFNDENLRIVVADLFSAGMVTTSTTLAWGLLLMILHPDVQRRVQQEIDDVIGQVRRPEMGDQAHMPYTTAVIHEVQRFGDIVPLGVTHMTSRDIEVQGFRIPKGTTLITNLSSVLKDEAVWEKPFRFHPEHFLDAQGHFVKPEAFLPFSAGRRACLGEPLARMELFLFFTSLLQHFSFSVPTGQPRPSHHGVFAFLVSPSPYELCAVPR
The target in data set [5] is Heat shock protein HSP 90-alpha (Homo sapiens, UniProt P07900). The class given is functional, organism-based.
Data set [6] can be described thus: growth suppression of PTEN-null colon cells, dose response, cell-based, HCT116 PTEN knockout (AID 1047).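 Note: HCT116 colon tumor cells with PTEN knocked out; cells exposed to compound for 60 hours before readout; potency for loss of cell viability measured by luminescence.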 Format: functional.
Data set [7] can be described thus: growth suppression of beta-catenin-knockout colon cells, dose response, cell-based, HCT116, human colon tumor (AID 1045).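 Note: HCT116 colon tumor cells with beta catenin knocked out; cells exposed to compound for 60 hours.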 The class given is functional.
Data set [8] deals with T3, Cytochrome P450 2C9 (Homo sapiens, UniProt P11712).
T3 sequence (P11712 whole entry): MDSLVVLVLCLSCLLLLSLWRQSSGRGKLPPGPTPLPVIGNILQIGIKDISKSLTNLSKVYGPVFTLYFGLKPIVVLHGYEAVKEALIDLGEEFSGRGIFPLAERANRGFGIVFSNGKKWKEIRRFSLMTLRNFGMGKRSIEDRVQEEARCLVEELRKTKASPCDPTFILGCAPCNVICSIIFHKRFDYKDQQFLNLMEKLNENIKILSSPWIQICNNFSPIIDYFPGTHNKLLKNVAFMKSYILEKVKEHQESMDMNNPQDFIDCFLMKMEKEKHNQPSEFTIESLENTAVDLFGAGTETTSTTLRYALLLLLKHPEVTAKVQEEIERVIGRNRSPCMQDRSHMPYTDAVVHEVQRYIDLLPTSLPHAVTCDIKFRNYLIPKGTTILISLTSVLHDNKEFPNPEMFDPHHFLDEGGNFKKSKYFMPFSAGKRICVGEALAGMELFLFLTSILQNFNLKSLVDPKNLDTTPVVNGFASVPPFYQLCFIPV
Data set [9] has as its target T4, Cytochrome P450 1A2 (Homo sapiens, UniProt P05177).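 Note: PubChem cytochrome P450 panel assay, CYP1A2 panel member.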
T4 sequence (P05177 whole entry): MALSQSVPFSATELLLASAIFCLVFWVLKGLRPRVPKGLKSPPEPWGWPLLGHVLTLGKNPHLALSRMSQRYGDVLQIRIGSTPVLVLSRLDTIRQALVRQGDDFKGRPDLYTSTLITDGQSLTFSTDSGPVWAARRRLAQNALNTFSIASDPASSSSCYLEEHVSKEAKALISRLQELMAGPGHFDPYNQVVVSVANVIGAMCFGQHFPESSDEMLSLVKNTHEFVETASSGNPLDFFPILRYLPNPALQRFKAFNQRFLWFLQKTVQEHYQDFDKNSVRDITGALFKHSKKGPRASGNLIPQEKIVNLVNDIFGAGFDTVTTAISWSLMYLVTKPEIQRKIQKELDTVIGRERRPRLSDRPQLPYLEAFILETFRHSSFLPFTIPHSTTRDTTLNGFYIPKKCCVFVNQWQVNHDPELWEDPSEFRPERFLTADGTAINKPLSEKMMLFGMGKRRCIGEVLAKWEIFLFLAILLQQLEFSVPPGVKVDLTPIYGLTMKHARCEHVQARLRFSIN

Data set [10] in a line: Luminescence Cell-Based Dose Confirmation HTS to Identify Activators of 5'UTR Stem-Loop Driven Alpha-Synuclein mRNA Translation in H4 Neuroglioblastoma Cells. [Related pubchem assays: 1829 (Project Summary), 1814 (Primary HTS)]. Format: functional.
Data set [11] relates to Streptococcus. Briefly: Group A Streptococcus viability loss, dose response, counter-screen for streptokinase expression inhibitor project, luminescence, BacTiterGlo (AID 1915).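 Note: potency for reduction of bacterial viability or growth.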 Format: functional, organism-based.
The test system of data set [12] is Streptococcus sp. 'group A'. Put plainly: growth inhibition of control SK(-) GAS strain, dose response, counter-screen for streptokinase expression inhibitor project, luminescence, kanamycin, BacTiterGlo, confirmation (AID 1900). Format: functional, organism-based.
Data set [13] deals with Cytochrome P450 2C19 (Homo sapiens, UniProt P33261). Put plainly: Cytochrome panel assay with activity outcomes. Panel member name: p450-cyp2c19 Compounds with AC50 equal or less than 10 uM are considered active. Format: functional. To be noted: read-out: AC50.
Chain of Cytochrome P450 2C19 (P33261 whole entry): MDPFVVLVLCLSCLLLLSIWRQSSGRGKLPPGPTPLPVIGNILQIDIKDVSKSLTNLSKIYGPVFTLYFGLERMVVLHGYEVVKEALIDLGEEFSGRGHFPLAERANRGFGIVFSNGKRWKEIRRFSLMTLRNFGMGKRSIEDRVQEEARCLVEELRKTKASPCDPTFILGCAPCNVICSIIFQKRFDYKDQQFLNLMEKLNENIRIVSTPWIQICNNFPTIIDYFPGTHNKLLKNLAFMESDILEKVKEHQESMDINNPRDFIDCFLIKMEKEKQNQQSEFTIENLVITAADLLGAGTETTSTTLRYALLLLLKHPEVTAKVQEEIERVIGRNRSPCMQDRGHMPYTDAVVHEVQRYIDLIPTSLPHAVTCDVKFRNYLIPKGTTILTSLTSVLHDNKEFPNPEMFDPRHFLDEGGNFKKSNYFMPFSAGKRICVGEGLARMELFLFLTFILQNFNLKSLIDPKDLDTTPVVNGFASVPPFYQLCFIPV
Data set [14] can be described thus: Luminescence Cell-Based Dose Response HTS to Identify Activators of Luciferase Translation or Activity in H4 […] Cells. [Related pubchem assays: 1829 (Project Summary), 1814 (Primary HTS)]. The class given is functional.
Data set [15] relates to H4. Put plainly: Luminescence Cell-Based Dose Response HTS to Identify Activators of 5'UTR Stem-Loop Driven Prion Protein mRNA Translation in H4 Neuroglioblastoma Cells. [Related pubchem assays: 1829 (Project Summary), 1814 (Primary HTS)]. The conditions noted are these: Homo sapiens. Format: functional.
In data set [16] the target is Cytochrome P450 3A4 (Homo sapiens, UniProt P08684).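 Note: CYP3A4 tested as one member of a cytochrome P450 panel screen.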
Chain of Cytochrome P450 3A4 (P08684 whole entry): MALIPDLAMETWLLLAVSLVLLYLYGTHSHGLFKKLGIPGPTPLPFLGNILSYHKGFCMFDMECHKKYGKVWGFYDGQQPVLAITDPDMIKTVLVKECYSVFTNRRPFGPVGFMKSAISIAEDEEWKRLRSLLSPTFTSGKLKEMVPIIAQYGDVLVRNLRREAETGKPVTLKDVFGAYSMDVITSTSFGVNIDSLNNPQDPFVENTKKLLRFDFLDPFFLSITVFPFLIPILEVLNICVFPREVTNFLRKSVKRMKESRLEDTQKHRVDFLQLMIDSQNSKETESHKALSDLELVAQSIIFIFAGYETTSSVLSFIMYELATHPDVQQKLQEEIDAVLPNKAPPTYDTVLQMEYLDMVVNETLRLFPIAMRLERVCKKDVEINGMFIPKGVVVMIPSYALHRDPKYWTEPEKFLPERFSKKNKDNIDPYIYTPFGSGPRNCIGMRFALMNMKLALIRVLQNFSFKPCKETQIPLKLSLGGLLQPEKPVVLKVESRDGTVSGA
Data set [17] has as its system P388. Briefly: cells. Format: functional. The conditions noted are these: Mus musculus.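 Note: compound exposure lasted 48 hours before growth was measured.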
Data set [18] can be described thus: Luminescence Cell-Based Dose Retest to Confirm Inhibitors of Cancer Stem Cells. [Related pubchem assays (depositor defined):AID2717, AID2721]. Format: functional. To be noted: Homo sapiens.
Data set [19] deals with T3, Cytochrome P450 2C9. The source holds these as a separate data set.

Active and inactive are the calls of the source.

By EC50 is commonly meant the concentration that produces a half-maximal response. The AC50 is the concentration at which the activity in the assay is half-maximal. For orientation: GI50 means the concentration that inhibits growth by half.

Consider `COc1cc(C2(c3ccc(O)c(OC)c3)C(=O)Nc3c(Br)cc(Br)cc32)ccc1O`, for which the EC50 in data set [1] was 4.77 µM (active). The AC50 in [2] was 3.13 µM (active). Turning to `Cc1ccc(S(=O)(=O)Nc2cccc3c2O[C@H](CN(C)C(=O)Nc2ccc4c(c2)OCO4)[C@H](C)CN([C@H](C)CO)C3=O)cc1`, in data set [3], the AC50 was 20 µM (inactive). Regarding `CCOC(=O)CSC1=C(C#N)C(c2sccc2C)C(C(C)=O)=C(C)N1` (stereo not drawn), the AC50 in data set [4] was 35.5 µM (inconclusive). As for `CCCCCCOc1ccc(N2C(=O)CC(N3CCC(C(=O)OCC)CC3)C2=O)cc1` (stereo not drawn), the AC50 in [5] is 2.3 µM (active). Turning to `COCCNc1ncnc2ccc(-c3ccccc3OC)cc12`, the AC50 in data set [4] was 39.8 µM (inconclusive). Still for that read-out and setting: then `O=C(Cn1cc(C(=O)c2ccco2)c2ccccc21)NCc1ccco1`, with 22.4 µM (inconclusive). Regarding `C[C@H]1CN([C@@H](C)CO)C(=O)c2cccc(NC(=O)Nc3ccc4c(c3)OCO4)c2O[C@@H]1CN(C)Cc1ccc(C(=O)Nc2ccccc2N)cc1`, the AC50 in data set [3] is 2.18 µM (active). Regarding `O=C(N/N=C/c1c[nH]c2ccccc12)c1cc(-c2ccc(-c3ccccc3)cc2)[nH]n1`, the EC50 in data set [6] is 5.81 µM (active); in data set [7], 8.8 µM (active); in data set [10], 0.219 µM (active); in [11], 1.56 µM (active); in data set [12] it was 3.46 µM (active); in data set [14] it was 0.166 µM (active). The EC50 in [15] was > 120 µM (not active). Besides, the AC50 result in [8] was “inconclusive”; in data set [9], 3.16 µM (inconclusive); in data set [13] it was 6.31 µM (inconclusive). `COc1cc(C2NC(=O)C(C#N)=C(Nc3cccc(C)c3)S2)ccc1O` (stereo not drawn): the EC50 in [1] is 20 µM (active). Besides, the AC50 in data set [2] was 42 µM (active).

On to `CN(C)C(=O)c1ccc(-c2nc(Nc3ccc(F)cc3)c3ccccc3n2)cc1`, for which the AC50 in data set [16] was 20 µM (inconclusive); in data set [4] it was 25.1 µM (inconclusive). As for `C[C@H]1CN([C@@H](C)CO)C(=O)Cc2cc(NC(=O)NC3CCCCC3)ccc2O[C@H]1CN(C)Cc1ccc(C(=O)Nc2ccccc2N)cc1`, the AC50 in data set [3] was 2.97 µM (active). In the case of `COc1ccc2c3c(c4cc(OC)c(OC)cc4c2c1)C[C@H]1CCCCN1C3` [CRYPTOPLEURINE], the GI50 in [17] was 0.005 µM (active).

`C[C@@H]1CN([C@H](C)CO)C(=O)Cc2cc(NC(=O)Nc3ccc(F)cc3)ccc2O[C@H]1CN(C)Cc1ccc(C(F)(F)F)cc1`: the AC50 in data set [3] is 7.02 µM (active). In the case of `C[C@H](CO)N1C[C@H](C)[C@@H](CN(C)C(=O)Nc2ccc(C(F)(F)F)cc2)Oc2c(NC(=O)Nc3ccc(C(F)(F)F)cc3)cccc2C1=O`, the AC50 in data set [3] was 7.68 µM (active); in [18], 3.73 µM (active).

With `COc1ccc(CN(C)C[C@@H]2Oc3ccc(NC(=O)Cc4ccccc4)cc3CC(=O)N([C@@H](C)CO)C[C@@H]2C)cc1`, the AC50 in data set [3] was 4.08 µM (active).

With `C[C@H](CO)N1C[C@H](C)[C@@H](CN(C)S(=O)(=O)c2cn(C)cn2)Oc2c(cccc2N(C)C)C1=O`, the AC50 in data set [3] is 15.8 µM (active). `O=c1c(-c2cccs2)nc2cncnc2n1Cc1ccc(F)cc1`: the AC50 in [4] was 0.631 µM (inconclusive); in data set [19] it was 1 µM (inconclusive). Take `C[C@@H]1CN([C@H](C)CO)C(=O)Cc2cc(NC(=O)Nc3ccccc3)ccc2O[C@@H]1CN(C)Cc1ccc(C(=O)Nc2ccccc2N)cc1`: the AC50 in data set [3] was 3.23 µM (active). Consider `CC(C)c1n[nH]c2c1C(c1cccs1)C(C#N)=C(N)O2` (stereo not drawn), for which, in data set [1], the EC50 is 4.29 µM (active). Also, the AC50 in data set [2] is 10.8 µM (active). The matching figures for `CCOc1cc(/C=C2/C(=N)N3OC(C)=CC3=NC2=O)ccc1O`: 26.9 µM (active) and 95.1 µM (active). For the molecule `O=C(c1ccc([N+](=O)[O-])cc1)[C@@H](Br)[C@@H](Br)c1ccnc2ccccc12`, the AC50 in data set [4] was 3.98 µM (inconclusive). As to `C[C@@H]1CN([C@H](C)CO)C(=O)Cc2cc(NS(=O)(=O)c3ccc(F)cc3)ccc2O[C@@H]1CN(C)S(=O)(=O)c1ccc(Cl)cc1`, the AC50 in [3] is 2.31 µM (active). Take `COc1cc2c(cc1OC)-c1cc3ccc(OC)c(OC)c3c[n+]1CC2` [PALMITINE]: the AC50 in data set [4] was 12.6 µM (inconclusive).

Turning to `COC(=O)c1cc([N+](=O)[O-])c(-n2ccnc2)c([N+](=O)[O-])c1`, the EC50 in data set [1] is 4.53 µM (active). Also, in [2], the AC50 was 6.54 µM (active). In the case of `CC1CCN(C(CC(=O)c2ccccc2)C(=O)c2ccccc2)CC1` (stereo not drawn), in data set [5], the AC50 is 7.7 µM (active). Take `CCn1c(COc2ccc(OC)cc2)nc2ccccc21`: the AC50 in data set [4] was 17.8 µM (inconclusive); in data set [8], “inconclusive”. Take `C[N+](C)(C)C1=NNC2=Nc3ccccc3SC2=C1`: the AC50 in data set [4] is 3.98 µM (inconclusive).

For the molecule `COC(=O)[C@@]1(Cc2ccc(F)cc2)[C@H]2c3cc(C(=O)N(C)C)n(Cc4ccc(C)c(F)c4F)c3C[C@H]2CN1C(=O)c1ccccc1`, the AC50 in [4] was 20 µM (inconclusive). Consider `CCOC(=O)CC1=NN(c2ccccc2)C(=O)C1`, for which, in data set [1], the EC50 is 10.1 µM (active). In data set [2], the AC50 was 13.1 µM (active).
